Measurements from patent US9353082B2, “Pharmaceutical compounds” (BIAL—PORTELA & CA, S.A., priority 2008, dated 2016).

How the values were obtained:
FAAH [1] = molecular target: T1, FAAH (Mus musculus, UniProt O08914); test: In vivo FAAH inhibition after oral dosing, remaining activity in brain homogenate (BRh, central nervous tissue); parameters: species or system NMRI mice; details: brain homogenate, low value = strong inhibitor; for In Vivo BRh 3 mg·kg 8 h (remaining FAAH activity, % of control): 8 h after dosing; for In Vivo BRh 3 mg · kg · 8 h (remaining FAAH activity): 3 mg/kg oral
T1 construct: A fragment of liver, left lung lobe and brain without cerebellum were removed; from tissue; host or cells: male NMRI mice; brain (without cerebellum) and liver homogenates
T1 sequence (O08914 1-579): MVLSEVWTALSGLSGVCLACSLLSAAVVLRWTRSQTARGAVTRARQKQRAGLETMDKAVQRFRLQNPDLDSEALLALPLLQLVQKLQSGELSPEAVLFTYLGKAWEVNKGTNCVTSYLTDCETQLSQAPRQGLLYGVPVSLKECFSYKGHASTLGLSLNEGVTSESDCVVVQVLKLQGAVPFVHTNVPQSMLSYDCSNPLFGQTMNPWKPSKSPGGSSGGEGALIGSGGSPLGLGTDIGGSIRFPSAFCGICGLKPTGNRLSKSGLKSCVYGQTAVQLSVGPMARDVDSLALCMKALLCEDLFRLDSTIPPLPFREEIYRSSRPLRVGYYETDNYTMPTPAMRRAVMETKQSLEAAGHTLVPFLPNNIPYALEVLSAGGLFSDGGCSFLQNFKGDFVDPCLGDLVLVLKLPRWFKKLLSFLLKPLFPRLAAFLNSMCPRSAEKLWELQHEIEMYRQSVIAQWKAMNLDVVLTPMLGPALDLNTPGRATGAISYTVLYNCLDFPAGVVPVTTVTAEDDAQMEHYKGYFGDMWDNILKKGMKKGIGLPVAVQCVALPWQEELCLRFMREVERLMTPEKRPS
Protocol: (§1) The in vivo test was performed according to the protocol described below. BRh indicates inhibition in central nervous tissue and LVh indicates inhibition in peripheral tissue, in this case liver.
(§2) The animals used for experiments were male NMRI mice (weighing 27-44 g) obtained from Interfauna Ibérica (Spain). Mice were kept 5 per cage, under controlled environmental conditions (12 hr light/dark cycle and room temperature 22±1° C.). Food and tap water were allowed ad libitum and the experiments were all carried out during daylight hours.
(§3) Animals were administered 30 mg/kg or 3 mg/kg compounds of the invention via oral route (8 ml/kg; compound suspended in 0.5% carboxymethylcellulose (CMC) or solubilized in water) or vehicle (controls) using animal feeding stainless steel curve needles (Perfectum, U.S.A.). Fifteen minutes before sacrifice animal were anesthetized with pentobarbital 60 mg/kg administered intraperitoneally. A fragment of liver, left lung lobe and brain without cerebellum were removed and put in plastic vials containing membrane buffer (3 mM MgCl2, 1 mM EDTA, 50 mM Tris HCl pH 7.4). Tissues were stored at −30° C. until analysis.
(§4) Animals were always fasted overnight before administration of compounds except for time points of >18 h, where food was removed on the morning of day of administration and the compound was administered in the afternoon of the same day. Animals were then given water but nothing else.
(§5) Tissues were thawed on ice and were homogenized in 10 volumes of membrane buffer (3 mM MgCl2, 1 mM EDTA, 50 mM Tris HCl pH 7.4) with either Potter-Elvejhem (brains—8 strokes at 500 rpm) or Heidolph Diax (livers—2 strokes at position 5 for 20 sec with 30 sec pauses).
(§6) Total protein in tissues was determined with the BioRad Protein Assay (BioRad) using a standard curve of BSA (50-250 μg/ml).
(§7) Reaction mix (total volume of 200 μl) contained: […] (2 μM AEA+5 nM ^3H-AEA), 0.1% fatty acid free BSA, 15 μg (brain), 5 μg (liver) or 50 μg (lung) protein, in 1 mM EDTA, 10 mM Tris pH 7.6. After a […] pre-incubation period at 37° C., reaction was started by the addition of the substrate solution (cold AEA+radiolabelled AEA+BSA). Reaction was carried out for 10 min (brain and lung) or […] (liver) before termination by the addition of 400 μl activated charcoal suspension (8 g charcoal in 32 ml 0.5 M HCl in continuous agitation). After a […] incubation period at room temperature with agitation, charcoal was sedimented by centrifugation in microfuge (10 min at 13000 rpm). 200 μl of the supernatant were added to 800 μl Optiphase Supermix scintillation cocktail previously distributed in 24-well plates. Counts per minute (cpm) were determined in a MicrobetaTriLux scintillation counter.
(§8) In each assay blanks (without protein) were prepared.
(§9) The percentage of remaining enzymatic activity was calculated in respect to controls and after blank subtraction.

FAAH [2] = molecular target: T1, FAAH; test: In vivo FAAH inhibition after oral dosing, remaining activity in liver homogenate (LVh, peripheral tissue); parameters: species or system NMRI mice; details: liver homogenate, low value = strong inhibitor; for In Vivo LVh 3 mg·kg 8 h (remaining FAAH activity, % of control): 8 h after dosing; for In Vivo LVh 3 mg · kg · 8 h (remaining FAAH activity): 3 mg/kg oral
Protocol: as §1, §2, §3, §4, §5, §6, §7, §8, §9

SMILES | In Vivo BRh 3 mg·kg 8 h (remaining FAAH activity, % of control) (FAAH [1]) | In Vivo LVh 3 mg·kg 8 h (remaining FAAH activity, % of control) (FAAH [2]) | In Vivo BRh 3 mg · kg · 8 h (remaining FAAH activity) (FAAH [1]) | In Vivo LVh 3 mg · kg · 8 h (remaining FAAH activity) (FAAH [2])
CN(C)c1ccc(-c2cn(C(=O)N(C)C3CCCCC3)cn2)cc1[N+](=O)[O-] [Compound no. 435, N-cyclohexyl-4-(4-(dimethylamino)-3-nitrophenyl)-N-methyl-1H-imidazole-1-carboxamide] | 4.3 % of control | 4.9 % of control |  | 
CN(C(=O)n1cnc(-c2cccc(C(=O)NO)c2)c1)C1CCCCC1 [Compound no. 424, N-cyclohexyl-4-(3-(hydroxycarbamoyl)phenyl)-N-methyl-1H-imidazole-1-carboxamide] | 1 % of control | 0.5 % of control |  | 
CN(C(=O)n1cnc(-c2cccc(-c3ccccc3)c2)c1)C12CC3CC(CC(C3)C1)C2 [Compound 290, 4-biphenyl-3-yl-N-methyl-N-tricyclo[3.3.1.13,7]dec-1-yl-1H-imidazole-1-carboxamide] | 115 % of control | 112.4 % of control |  | 
CC1(C)COCN1C(=O)n1cnc(-c2ccc(O)c(N)c2)c1.Cl [Compound no. 358, (4-(3-amino-4-hydroxyphenyl)-1H-imidazol-1-yl)(4,4-dimethyloxazolidin-3-yl)methanone hydrochloride] | 117.1 % of control | 81.2 % of control |  | 
Br.CN(C(=O)n1cnc(-c2ccc(O)c(O)c2)c1)C1CCN(Cc2ccccc2)CC1 [Compound no. 465, N-(1-benzylpiperidin-4-yl)-4-(3,4-dihydroxyphenyl)-N-methyl-1H-imidazole-1-carboxamide hydrobromide] | 3.8 % of control | 3.1 % of control |  | 
CN(C(=O)n1cnc(-c2ccc(-c3noc(=O)[nH]3)cc2)c1)C1CCCCC1 [Compound 551, N-cyclohexyl-N-methyl-4-(4-(5-oxo-4,5-dihydro-1,2,4-oxadiazol-3-yl)phenyl)-1H-imidazole-1-carboxamide] |  |  | 85.2 % of control | 3.8 % of control
CN(C(=O)n1cnc(-c2ccc(S(N)(=O)=O)cc2)c1)C1CCCCC1 [Compound no. 376, N-cyclohexyl-N-methyl-4-(4-sulfamoylphenyl)-1H-imidazole-1-carboxamide] | 95.3 % of control | 5.7 % of control |  | 
CN(C(=O)n1cnc(-c2ccc(O)cc2)c1)C1CCCC1 [Compound 294, N-cyclopentyl-4-(4-hydroxyphenyl)-N-methyl-1H-imidazole-1-carboxamide] | 1.4 % of control | 1.4 % of control |  | 
CN(C(=O)n1cnc(-c2ccc(/C(N)=N/O)cc2)c1)C1CCCCC1 [Compound no. 406, (Z)—N-cyclohexyl-4-(4-(N′-hydroxycarbamimidoyl)phenyl)-N-methyl-1H-imidazole-1-carboxamide] | 66.8 % of control | 16.3 % of control |  | 
CCCN1CCC(N(C)C(=O)n2cnc(-c3ccc(O)c(C(N)=O)c3)c2)CC1 [Compound 554, 4-(3-carbamoyl-4-hydroxyphenyl)-N-methyl-N-(1-propylpiperidin-4-yl)-1H-imidazole-1-carboxamide] |  |  | 102.2 % of control | 85.6 % of control
CN(C(=O)n1cnc(-c2cccc(C(=O)NO)c2)c1)C1CCN(Cc2ccccc2)CC1 [Compound no. 423, N-(1-benzylpiperidin-4-yl)-4-(3-(hydroxycarbamoyl)phenyl)-N-methyl-1H-imidazole-1-carboxamide] | 90 % of control | 2.1 % of control |  | 
CN(C(=O)n1cnc(-c2ccc3c(c2)[nH]c(=O)n3Cc2ccccc2)c1)C1CCCCC1 [Compound no. 426, 4-(1-benzyl-2-oxo-2,3-dihydro-1H-benzo[d]imidazol-5-yl)-N-cyclohexyl-N-methyl-1H-imidazole-1-carboxamide] | 96.9 % of control | 115.8 % of control |  | 

Now from value to compound:

In Vivo BRh 3 mg·kg 8 h (remaining FAAH activity, % of control) (FAAH [1]) | In Vivo LVh 3 mg·kg 8 h (remaining FAAH activity, % of control) (FAAH [2]) | In Vivo BRh 3 mg · kg · 8 h (remaining FAAH activity) (FAAH [1]) | In Vivo LVh 3 mg · kg · 8 h (remaining FAAH activity) (FAAH [2]) | SMILES
83.2 % of control | 16.7 % of control |  |  | COc1ccc(-c2cn(C(=O)N(C)C3CCCCC3)cn2)cc1C(N)=O [Compound no. 482, 4-(3-carbamoyl-4-methoxyphenyl)-N-cyclohexyl-N-methyl-1H-imidazole-1-carboxamide]
 |  | 74.6 % of control | 18.3 % of control | CCN1CCC(N(C)C(=O)n2cnc(-c3ccc(O)c(F)c3)c2)CC1 [Compound no. 536, N-(1-ethylpiperidin-4-yl)-4-(3-fluoro-4-hydroxyphenyl)-N-methyl-1H-imidazole-1-carboxamide]
 |  | 48.9 % of control | 22.9 % of control | CN(C(=O)n1cnc(-c2ccc(O)c([N+](=O)[O-])c2)c1)C1CCOCC1 [Compound no. 494, 4-(4-hydroxy-3-nitrophenyl)-N-methyl-N-(tetrahydro-2H-pyran-4-yl)-1H-imidazole-1-carboxamide]
 |  | 2.1 % of control | 2.3 % of control | CN(C(=O)n1cnc(-c2ccc(O)c(F)c2)c1)C1CCOCC1 [Compound no. 495, 4-(3-fluoro-4-hydroxyphenyl)-N-methyl-N-(tetrahydro-2H-pyran-4-yl)-1H-imidazole-1-carboxamide]
 |  | 78.8 % of control | 25.1 % of control | CCN1CCC(N(C)C(=O)n2cnc(-c3ccc(OC)c(F)c3)c2)CC1 [Compound no. 503, N-(1-ethylpiperidin-4-yl)-4-(3-fluoro-4-methoxyphenyl)-N-methyl-1H-imidazole-1-carboxamide]
 |  | 21.4 % of control | 12.6 % of control | CCCN1CCC(N(C)C(=O)n2cnc(-c3cccc(OC)c3)c2)CC1 [Compound no. 498, 4-(3-methoxyphenyl)-N-methyl-N-(1-propylpiperidin-4-yl)-1H-imidazole-1-carboxamide]
 |  | 75.1 % of control | 21.8 % of control | CN(C(=O)n1cnc(-c2ccc(F)c(O)c2)c1)C1CCOCC1 [Compound no. 500, 4-(4-fluoro-3-hydroxyphenyl)-N-methyl-N-(tetrahydro-2H-pyran-4-yl)-1H-imidazole-1-carboxamide]
